We go through 12 compounds from ChEMBL document CHEMBL4229453, “New lead elements for histamine H3 receptor ligands in the pyrrolo[2,3-d]pyrimidine class” (Bioorg Med Chem Lett, 2018).

The target in experiment [1] is T1, Histamine H3 receptor (Homo sapiens, UniProt Q9Y5N1). The experiment can be described thus: Displacement of [3H]Nalpha-methylhistamine from human H3 receptor at 1 uM relative to control. A general note: Loss of bound radioactivity is the signal in a displacement assay; it reports binding, not function.
T1 sequence (Q9Y5N1 whole entry): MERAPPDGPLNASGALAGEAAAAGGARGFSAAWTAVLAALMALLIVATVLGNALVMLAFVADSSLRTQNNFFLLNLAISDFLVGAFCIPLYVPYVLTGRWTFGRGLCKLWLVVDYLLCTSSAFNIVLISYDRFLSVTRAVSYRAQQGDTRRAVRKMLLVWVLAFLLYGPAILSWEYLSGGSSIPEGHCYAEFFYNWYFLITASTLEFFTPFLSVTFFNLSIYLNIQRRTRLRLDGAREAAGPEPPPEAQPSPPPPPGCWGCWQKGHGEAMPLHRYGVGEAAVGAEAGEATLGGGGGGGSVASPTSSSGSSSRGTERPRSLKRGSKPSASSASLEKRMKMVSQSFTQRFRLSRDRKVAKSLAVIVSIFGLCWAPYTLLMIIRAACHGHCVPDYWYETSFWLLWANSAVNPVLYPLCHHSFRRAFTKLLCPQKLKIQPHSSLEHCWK
In experiment [2] the target is Histamine H4 receptor (Homo sapiens) (UniProt Q9H3N8). The experiment can be described thus: Displacement of [3H]histamine from human H4 receptor at 1 uM relative to control.
Histamine H4 receptor (Homo sapiens), sequence (Q9H3N8 whole entry): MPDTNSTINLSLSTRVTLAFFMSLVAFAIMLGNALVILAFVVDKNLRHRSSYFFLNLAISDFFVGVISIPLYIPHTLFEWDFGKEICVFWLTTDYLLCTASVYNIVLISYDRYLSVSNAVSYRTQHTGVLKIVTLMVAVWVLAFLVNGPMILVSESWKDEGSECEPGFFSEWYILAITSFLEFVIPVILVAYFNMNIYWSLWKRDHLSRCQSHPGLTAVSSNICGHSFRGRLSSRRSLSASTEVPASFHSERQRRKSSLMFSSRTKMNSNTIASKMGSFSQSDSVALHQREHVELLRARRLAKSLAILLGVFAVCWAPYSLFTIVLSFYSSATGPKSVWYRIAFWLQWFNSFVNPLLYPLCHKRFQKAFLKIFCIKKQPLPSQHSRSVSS
In experiment [3] the target is T1, Histamine H3 receptor. The experiment can be described thus: Displacement of [3H]Nalpha-methylhistamine from human H3 receptor.

On to `Clc1nc(N2CCC(N3CCOCC3)CC2)c2ccn(Cc3ccc4ccccc4c3)c2n1`, for which the inhibition (on Histamine H3 receptor [1]; in experiment [2]) was below 80% throughout.
Turning to `CN1CCN(c2nc(Cl)nc3c2ccn3Cc2ccc3ccccc3c2)CC1`, the inhibition (at Histamine H3 receptor [1]; in experiment [2]) was below 80% in each case.
Turning to `Clc1nc(N2CCC(N3CCCCC3)CC2)c2ccn(Cc3cccc4ccccc34)c2n1`, the inhibition at Histamine H3 receptor [1] is 95%; in experiment [2], below 80%. For the same compound, the Ki at Histamine H3 receptor [3] is 148 nM.
On to `Clc1nc(NCCN2CCOCC2)c2ccn(Cc3ccc4ccccc4c3)c2n1`, for which the inhibition (at Histamine H3 receptor [1]; in experiment [2]) was below 80% each time.
As to `CN1CCN(c2nc(Cl)nc3c2ccn3Cc2ccccc2)CC1`, the inhibition (at Histamine H3 receptor [1]; in experiment [2]) was below 80% in each case.
For `CN1CCN(c2nc(Cl)nc3c2ccn3Cc2cccc3ccccc23)CC1`, the inhibition (at Histamine H3 receptor [1]; in experiment [2]) was below 80% throughout.
For the compound `Clc1nc(N2CCC(N3CCOCC3)CC2)c2ccn(Cc3cccc4ccccc34)c2n1`, the inhibition (on Histamine H3 receptor [1]; in experiment [2]) was below 80% each time.
Consider `Clc1nc(N2CCC(N3CCCCC3)CC2)c2ccn(Cc3ccc4ccccc4c3)c2n1`, for which the inhibition at Histamine H3 receptor [1] is 95%; in experiment [2], below 80%. On Histamine H3 receptor [3], this compound gave a Ki of 126 nM.
Taken in the same sequence, the figures for `Clc1nc(N2CCC(N3CCCCC3)CC2)c2ccn(Cc3ccccc3)c2n1` were 96%, below 80% and 490 nM.
As for `Clc1nc(N2CCC(N3CCOCC3)CC2)c2ccn(Cc3ccccc3)c2n1`, the inhibition (at Histamine H3 receptor [1]; in experiment [2]) was below 80% throughout. This compound showed an inhibition constant Ki at Histamine H3 receptor [3] of 1070 nM.
On to `Clc1nc(NCCN2CCOCC2)c2ccn(Cc3cccc4ccccc34)c2n1`, for which the inhibition (at Histamine H3 receptor [1]; in experiment [2]) was below 80% each time.
In the case of `Clc1nc(NCCN2CCOCC2)c2ccn(Cc3ccccc3)c2n1`, the inhibition (at Histamine H3 receptor [1]; in experiment [2]) was below 80% each time.

Usually inhibition stands for the share of the control response that was lost under treatment. Usually Ki stands for a dissociation constant, usually derived from enzyme kinetics or from competition with a known ligand. Read a high Ki as weaker binding.
